Source: ChEMBL document CHEMBL1151804, “Antisense-guided isolation and structure elucidation of pannomycin, a substituted cis-decalin from Geomyces pannorum” (2009)
Values after ≈ are worked out from the molar mass of the structure shown. Active and inactive are the calls of the source. The rule behind the calls is not given here.

Tests used:
Staphylococcus aureus [1] = assay: Antibacterial activity against methicillin-resistant Staphylococcus aureus after 20 hrs; assay type: functional
Candida albicans = assay: Antifungal activity against Candida albicans up to 1.4 mM after 24 hrs; assay type: functional, organism-based
Haemophilus influenzae = assay: Antibacterial activity against Haemophilus influenzae up to 1.4 mM after 20 hrs; assay type: functional, organism-based
Bacillus subtilis = assay: Antibacterial activity against Bacillus subtilis after 20 hrs; assay type: functional
Staphylococcus aureus [2] = assay: Antibacterial activity against Staphylococcus aureus Smith after 20 hrs; assay type: functional
Escherichia coli = assay: Antibacterial activity against Escherichia coli up to 1.4 mM after 20 hrs; assay type: functional, organism-based
Streptococcus pneumoniae = assay: Antibacterial activity against Streptococcus pneumoniae up to 1.4 mM after 20 hrs; assay type: functional, organism-based
Enterococcus faecalis = assay: Antibacterial activity against Enterococcus faecalis after 20 hrs; assay type: functional

Row | SMILES | MIC (Staphylococcus aureus [1]) | Activity (Candida albicans) | Activity (Haemophilus influenzae) | MIC (Bacillus subtilis) | MIC (Staphylococcus aureus [2]) | Activity (Escherichia coli) | Activity (Streptococcus pneumoniae) | MIC (Enterococcus faecalis)
1 | C/C=C/[C@@H]1C(C)=C[C@@H]2CC[C@@H](C)C[C@@H]2[C@]1(C)C(=O)C1=C(O)C(CO)N(C)C1=O (some centres undefined) | 12 µM (≈ 4.65 µg/mL) | – | – | – | – | – | – | –
2 | C/C=C/[C@@H]1C=C[C@@H]2C[C@@H](C)CC[C@@H]2[C@]1(C)C(=O)C1=C(O)C(C(C)O)N(C)C1=O (some centres undefined) [CISSETIN] | 10 µM (≈ 3.88 µg/mL) | – | – | – | – | – | – | –
3 | C/C=C/[C@H]1C(C)=C[C@H]2C[C@H](C)[C@H](O)C[C@H]2[C@]1(C)/C=C(C)/C=C/C(=O)O [PANNOMYCIN] | – | inactive | inactive | 400 µM (≈ 138 µg/mL) | 1400 µM (≈ 482 µg/mL) | inactive | inactive | 1400 µM (≈ 482 µg/mL)
